Experimental data taken from patent US11896733B2, “Apparatuses, methods, and compositions for the treatment and prophylaxis of chronic wounds” (KCI Licensing, Inc., priority 2010, dated 2024).

How the values were obtained:
[1] = target: T1, MMP-9 (Homo sapiens, UniProt P14780); assay: MMP-9 Colorimetric Drug Discovery Kit (Biomol): MMP-9 activity reduction by dressings; format: biochemical; conditions: compared to control samples with no MMP-9 inhibitor activity
T1 construct: purchased Biomol
Excerpt: A National Diagnostics Hydrogen Peroxide Assay Kit was used to evaluate the antioxidant properties of foam pads and the formulated coated foam pads containing alpha-lipoic acid. Foam pads coated only with gelatin were used as controls. FIG. 7 is a graph showing the percentage of hydrogen peroxide reduction due to reaction with alpha-lipoic acid. An MMP-9 Colorimetric Drug Discovery Kit (Biomol) was used to evaluate the MMP inhibiting/inactivating ability of the formulated foam pads containing alpha-lipoic acid/gelatin (ALA) and gelatin alone (GF GEL). The controls were uncoated foam pads and known potent MMP inactivating drug, NNGH (C13H20N2O5S, available from Enzo® Life Sciences). […] FIG. 9 is a graph showing the release of alpha-lipoic acid from the coating on the foam pads. The coating delivers approximately 70% of the total alpha-lipoic acid within the first day, while the remaining alpha-lipoic acid is released during the next 2-3 days.
Coated polyurethane foam (GranuFoam®) scaffolds described above in Examples 1-2 were further assayed for their ability to reduce MMP activity as compared to non-coated collagen based scaffold such as the Biostep™ and Promogran™ products.

[2] = Release of alpha-lipoic acid from the coating on foam pads; format: physicochemical; conditions: gelatin coating on foam pads (FIG. 9)
Excerpt: Polyurethane open-cell reticulated foam pads were selected as the scaffold 140 and were immersed in a solution containing 1.5 wt % of alpha-lipoic acid and 4.5 wt % 225-bloom beef gelatin (and, where applicable, 0.3% EDTA). Gelatin was used as a biocompatible binding agent with good oxygen barrier and sustained release properties for alpha-lipoic acid as well as for its ability to act as a sacrificial substrate for surrounding gelatinases. Alpha-lipoic acid was pre-dissolved in ethanol and then mixed into the final solution. The foam pads were immersed for a sufficient amount of time to coat the pathways formed within the open-cell reticulated foam as described above with respect to the scaffold 140. After immersion, the foam pads were withdrawn, compressed to remove excess solution, and dried to a constant weight. In some cases, sodium benzoate was added to the formulation as a preservative. Dried foams comprised, by weight, 2% alpha-lipoic acid, 6% gelatin and, where applicable, 0.4% EDTA.
A National Diagnostics Hydrogen Peroxide Assay Kit was used to evaluate the antioxidant properties of foam pads and the formulated coated foam pads containing alpha-lipoic acid. Foam pads coated only with gelatin were used as controls. FIG. 7 is a graph showing the percentage of hydrogen peroxide reduction due to reaction with alpha-lipoic acid. […]

T1 sequence (P14780 107-444 limits assumed): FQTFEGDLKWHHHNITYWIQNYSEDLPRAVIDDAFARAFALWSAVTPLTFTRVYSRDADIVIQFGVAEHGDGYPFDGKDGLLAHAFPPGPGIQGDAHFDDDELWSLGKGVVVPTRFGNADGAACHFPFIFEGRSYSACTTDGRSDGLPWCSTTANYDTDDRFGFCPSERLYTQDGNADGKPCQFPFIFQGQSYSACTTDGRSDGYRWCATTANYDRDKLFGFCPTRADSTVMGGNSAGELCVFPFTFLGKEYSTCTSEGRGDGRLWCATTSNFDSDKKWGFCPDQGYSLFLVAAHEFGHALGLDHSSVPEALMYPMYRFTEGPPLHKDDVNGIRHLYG

time over which the remaining alpha-lipoic acid is released ([2]; after the first day)	fraction of the total alpha-lipoic acid delivered by the coating ([2]; within the first day)	Structure (SMILES)	% MMP-9 activity reduction ([1]; Table 1 (first of two separate experiments))	% MMP-9 activity reduction ([1]; Table 2 (second of two separate experiments))
–	–	COc1ccc(S(=O)(=O)N(CC(=O)NO)CC(C)C)cc1 [NNGH]	90.2%	103.8%
2 to 3 days	approximately 70%	O=C(O)CCCCC1CCSS1 (stereo not drawn) [alpha-lipoic acid]	–	–
